Laboratory results taken from patent US9422293B2 (priority 2006, dated 2016).
Counter-ions that a name gives are not always drawn.

These compounds were tested against rat TRPV1 (Rattus norvegicus (Rat), UniProt O35433). Settings: read-out: Rat IC50.
Chain of rat TRPV1 (O35433 whole entry): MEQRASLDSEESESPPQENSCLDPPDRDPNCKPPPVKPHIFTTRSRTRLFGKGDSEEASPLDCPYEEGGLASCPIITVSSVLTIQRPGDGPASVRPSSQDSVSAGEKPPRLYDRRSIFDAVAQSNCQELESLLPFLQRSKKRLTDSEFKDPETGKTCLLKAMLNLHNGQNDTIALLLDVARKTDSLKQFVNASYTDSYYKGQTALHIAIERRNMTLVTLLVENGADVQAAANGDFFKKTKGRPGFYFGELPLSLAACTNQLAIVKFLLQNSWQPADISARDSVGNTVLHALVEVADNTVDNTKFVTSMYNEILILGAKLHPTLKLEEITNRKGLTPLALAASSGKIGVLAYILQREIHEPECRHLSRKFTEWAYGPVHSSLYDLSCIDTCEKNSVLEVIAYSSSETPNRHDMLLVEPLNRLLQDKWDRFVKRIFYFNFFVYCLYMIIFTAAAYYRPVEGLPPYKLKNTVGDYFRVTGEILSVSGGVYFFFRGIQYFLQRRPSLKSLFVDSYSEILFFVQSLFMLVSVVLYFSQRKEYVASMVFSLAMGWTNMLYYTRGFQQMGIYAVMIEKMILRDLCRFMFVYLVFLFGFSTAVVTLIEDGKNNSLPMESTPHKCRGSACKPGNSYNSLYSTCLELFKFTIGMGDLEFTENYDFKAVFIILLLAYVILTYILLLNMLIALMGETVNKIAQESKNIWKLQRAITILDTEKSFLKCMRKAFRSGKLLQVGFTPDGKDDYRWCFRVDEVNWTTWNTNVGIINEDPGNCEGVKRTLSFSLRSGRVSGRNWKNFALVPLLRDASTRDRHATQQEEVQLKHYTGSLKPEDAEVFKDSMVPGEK

In order of rising IC50:
1. Cc1cc(C(F)(F)F)ccc1Nc1nc(SC2CCOC2C)nc2c1CCN(c1ncccc1C(F)(F)F)CC2 (stereo not drawn) [Example 368, 2,5-Anhydro-1,4-dideoxy-3-S-(4-{[2-methyl-4-(trifluoromethyl)phenyl]amino}-7-[3-(trifluoromethyl)pyridin-2-yl]-6,7,8,9-tetrahydro-5H-pyrimido[4,5-d]azepin-2-yl)-3-thiopentitol]  20 nM
2. O=S(=O)(c1ccc(Nc2nc(OC3CCCC3)nc3c2CCN(c2ncccc2C(F)(F)F)CC3)cc1)N1CCCC1 [Example 333, 2-(Cyclopentyloxy)-N-[4-(pyrrolidin-1-ylsulfonyl)phenyl]-7-[3-(trifluoromethyl)pyridin-2-yl]-6,7,8,9-tetrahydro-5H-pyrimido[4,5-d]azepin-4-amine]  40 nM
3. CCCCOc1nc2c(c(Nc3ccc(C(F)(F)F)cc3)n1)CCN(c1ncccc1C(F)(F)F)CC2 [Example 343, 2-(Butyloxy)-N-[4-(trifluoromethyl)phenyl]-7-[3-(trifluoromethyl)pyridin-2-yl]-6,7,8,9-tetrahydro-5H-pyrimido[4,5-d]azepin-4-amine]  60 nM
4. COCCN(C)c1nc2c(c(Nc3ccc(C(F)(F)F)c(Cl)c3)n1)CCN(c1ncccc1C(F)(F)F)CC2 [Example 229, N^4-[3-Chloro-4-(trifluoromethyl)phenyl]-N^2-methyl-N^2-[2-(methyloxy)ethyl]-7-[3-(trifluoromethyl)pyridin-2-yl]-6,7,8,9-tetrahydro-5H-pyrimido[4,5-d]azepine-2,4-diamine trifluoroacetic acid salt]  60 nM
5. FC(F)(F)c1ccc(Nc2nc(N3CCC3)nc3c2CCN(c2ncccc2C(F)(F)F)CC3)cc1 [Example 56B, [2-Azetidin-1-yl-7-(3-trifluoromethyl-pyridin-2-yl)-6,7,8,9-tetrahydro-5H-pyrimido[4,5-d]azepin-4-yl]-(4-trifluoromethyl-phenyl)-amine trifluoroacetic acid salt]  64 nM
6. FC(F)(F)c1cnc(Nc2nc(N3CCCCC3)nc3c2CCN(c2ncccc2C(F)(F)F)CC3)cn1 [Example 192, [2-Piperidin-1-yl-7-(3-trifluoromethyl-pyridin-2-yl)-6,7,8,9-tetrahydro-5H-pyrimido[4,5-d]azepin-4-yl]-(5-trifluoromethyl-pyrazin-2-yl)-amine]  70 nM
7. FC(F)(F)c1ccc(Nc2nc(N3CCCCC3)nc3c2CCN(c2ncccc2C(F)(F)F)CC3)cn1 [Example 234, 2-Piperidin-1-yl-7-[3-(trifluoromethyl)pyridin-2-yl]-N-[6-(trifluoromethyl)pyridin-3-yl]-6,7,8,9-tetrahydro-5H-pyrimido[4,5-d]azepin-4-amine trifluoroacetic acid salt]  80 nM
8. FC(F)(F)c1ccc(Nc2nc(-c3ccccn3)nc3c2CCN(c2ncccc2C(F)(F)F)CC3)cc1 [Example 172, 2-Pyridin-2-yl-N-[4-(trifluoromethyl)phenyl]-7-[3-(trifluoromethyl)pyridin-2-yl]-6,7,8,9-tetrahydro-5H-pyrimido[4,5-d]azepin-4-aminele 1 trifluoroacetic acid salt]  130 nM
9. CC(C)(CO)c1ccc(Nc2nc(N3CCCCC3)nc3c2CCN(c2ncccc2C(F)(F)F)CC3)cc1 [Example 383, 2-Methyl-2-{4-[2-piperidin-1-yl-7-(3-trifluoromethyl-pyridin-2-yl)-6,7,8,9-tetrahydro-5H-pyrimido[4,5-d]azepin-4-ylamino]-phenyl}-propan-1-ol]  160 nM
10. FC(F)(F)c1ccc(Nc2nc(N3CCCCC3)nc3c2CCN(c2ncccc2C(F)(F)F)CC3)cc1Cl [Example 233, N-[3-Chloro-4-(trifluoromethyl)phenyl]-2-piperidin-1-yl-7-[3-(trifluoromethyl)pyridin-2-yl]-6,7,8,9-tetrahydro-5H-pyrimido[4,5-d]azepin-4-amine trifluoroacetic acid salt]  170 nM
11. FC(F)(F)c1ccc(Nc2nc(-c3ccsc3)nc3c2CCN(c2ncccc2C(F)(F)F)CC3)cc1 [Example 150, 2-(3-Thienyl)-N-[4-(trifluoromethyl)phenyl]-7-[3-(trifluoromethyl)pyridin-2-yl]-6,7,8,9-tetrahydro-5H-pyrimido[4,5-d]azepin-4-amine]  200 nM
12. CC(C)c1nc2c(c(Nc3ccc(C(C)(C)C#N)cc3)n1)CCN(c1ncccc1C(F)(F)F)CC2 [Example 129, 2-Methyl-2-[4-({2-(1-methylethyl)-7-[3-(trifluoromethyl)pyridin-2-yl]-6,7,8,9-tetrahydro-5H-pyrimido[4,5-d]azepin-4-yl}amino)phenyl]propanenitrile]  230 nM
13. O[C@@H]1CCCN(c2nc3c(c(Nc4ccc(C(F)(F)F)cc4)n2)CCN(c2ncccc2C(F)(F)F)CC3)C1 [Example 91B, (R)-1-[4-(4-Trifluoromethyl-phenylamino)-7-(3-trifluoromethyl-pyridin-2-yl)-6,7,8,9-tetrahydro-5H-pyrimido[4,5-d]azepin-2-yl]-piperidin-3-ol trifluoroacetic acid salt]  240 nM
14. CN(C)c1nc2c(c(Nc3ccc(C(F)(F)F)cn3)n1)CCN(c1ncccc1C(F)(F)F)CC2 [Example 44, N^2,N^2-Dimethyl-N^4-(5-trifluoromethyl-pyridin-2-yl)-7-(3-trifluoro-methyl-pyridin-2-yl)-6,7,8,9-tetrahydro-5H-pyrimido[4,5-d]azepine-2,4-diamine]  250 nM
15. FC(F)(F)c1ccc(Nc2nc(OC3CCOC3)nc3c2CCN(c2ncccc2C(F)(F)F)CC3)cc1 (stereo not shown) [Example 340, 2-(Tetrahydrofuran-3-yloxy)-N-[4-(trifluoromethyl)phenyl]-7-[3-(trifluoromethyl)pyridin-2-yl]-6,7,8,9-tetrahydro-5H-pyrimido[4,5-d]azepin-4-amine]  260 nM
16. CN1CCN(c2nc3c(c(Nc4ccc(C(F)(F)F)cc4)n2)CCN(c2ncccc2C(F)(F)F)CC3)CC1 [Example 92B, [2-(4-Methyl-piperazin-1-yl)-7-(3-trifluoromethyl-pyridin-2-yl)-6,7,8,9-tetrahydro-5H-pyrimido[4,5-d]azepin-4-yl]-(4-trifluoromethyl-phenyl)-amine trifluoroacetic acid salt]  270 nM
17. CC(C)c1nc2c(c(Nc3ccc(C(F)(F)F)nc3)n1)CCN(c1ncccc1C(F)(F)F)CC2 [Example 23, [2-Isopropyl-7-(3-trifluoromethyl-pyridin-2-yl)-6,7,8,9-tetrahydro-5H-pyrimido[4,5-d]azepin-4-yl]-(6-trifluoromethyl-pyridin-3-yl)-amine]  310 nM
18. FC(F)(F)c1ccc(Nc2ncnc3c2CCN(c2cnc4ccccc4n2)CC3)cc1 [Example 29, (7-Quinoxalin-2-yl-6,7,8,9-tetrahydro-5H-pyrimido[4,5-d]azepin-4-yl)-(4-trifluoromethyl-phenyl)-amine]  340 nM
19. CC(C)c1nc2c(c(Nc3ccc(C(F)(F)F)cc3)n1)CCN(c1ncccc1S(C)(=O)=O)CC2 [Example 36, [2-Isopropyl-7-(3-methanesulfonyl-pyridin-2-yl)-6,7,8,9-tetrahydro-5H-pyrimido[4,5-d]azepin-4-yl]-(4-trifluoromethyl-phenyl)-amine]  370 nM
20. Fc1cc(C(F)(F)F)ccc1Nc1nc(N2CCCCC2)nc2c1CCN(c1ncccc1C(F)(F)F)CC2 [Example 166]  380 nM
21. CN1CCCc2ccc(Nc3nc(OC4CCOC4)nc4c3CCN(c3ncccc3C(F)(F)F)CC4)cc21 (stereo not shown) [Example 323, N-(1-Methyl-1,2,3,4-tetrahydroquinolin-7-yl)-2-(tetrahydrofuran-3-yloxy)-7-[3-(trifluoromethyl)pyridin-2-yl]-6,7,8,9-tetrahydro-5H-pyrimido[4,5-d]azepin-4-amine]  670 nM
22. CC(C)c1nc2c(c(NCCc3ccc(F)cc3)n1)CCN(c1ncccc1C(F)(F)F)CC2 [Example 12, [2-(4-Fluoro-phenyl)-ethyl]-[2-isopropyl-7-(3-trifluoromethyl-pyridin-2-yl)-6,7,8,9-tetrahydro-5H-pyrimido[4,5-d]azepin-4-yl]-amine]  950 nM
23. CCS(=O)(=O)c1cccnc1N1CCc2nc(N3CCCCC3)nc(Nc3ccc(C(F)(F)F)cc3)c2CC1 [Example 297, 7-[3-(Ethylsulfonyl)pyridin-2-yl]-2-piperidin-1-yl-N-[4-(trifluoromethyl)phenyl]-6,7,8,9-tetrahydro-5H-pyrimido[4,5-d]azepin-4-amine]  1080 nM
24. CCS(=O)(=O)c1cccnc1N1CCc2nc(SC)nc(Nc3ccc(C(F)(F)F)cc3)c2CC1 [Example 305, [7-(3-Ethanesulfonyl-pyridin-2-yl)-2-methylsulfanyl-6,7,8,9-tetrahydro-5H-pyrimido[4,5-d]azepin-4-yl]-(4-trifluoromethyl-phenyl)-amine]  1120 nM
25. CC(C)Sc1nc2c(c(Nc3ccc(S(=O)(=O)C(F)(F)F)cc3)n1)CCN(c1ncccc1C(F)(F)F)CC2 [Example 361, 2-[(1-Methylethyl)sulfanyl]-7-[3-(trifluoromethyl)pyridin-2-yl]-N-{4-[(trifluoromethyl)sulfonyl]phenyl}-6,7,8,9-tetrahydro-5H-pyrimido[4,5-d]azepin-4-amine]  1530 nM
26. CC(Oc1nc2c(c(Nc3ccc(C(F)(F)F)cc3)n1)CCN(c1ncccc1C(F)(F)F)CC2)C1CCCCC1 (stereo not drawn) [Example 332, 2-[(1-Cyclohexylethyl)oxy]l-N-[4-(trifluoromethyl)phenyl]-7-[3-(trifluoromethyl)pyridin-2-yl]-6,7,8,9-tetrahydro-5H-pyrimido[4,5-d]azepin-4-amine]  2040 nM
27. NC(=O)c1cccnc1N1CCc2ncnc(Nc3ccc(C(F)(F)F)cc3)c2CC1 [Example 294, 2-(4-{[4-(Trifluoromethyl)phenyl]amino}-5,6,8,9-tetrahydro-7H-pyrimido[4,5-d]azepin-7-yl)pyridine-3-carboxamide trifluoroacetic acid salt]  2940 nM
28. CN(C)c1nc2c(c(Nc3ccc4c(c3)OCCO4)n1)CCN(c1ncccc1C(F)(F)F)CC2 [Example 68B, N^4-(2,3-Dihydro-benzo[1,4]dioxin-6-yl)-N^2,N^2-dimethyl-7-(3-trifluoromethyl-pyridin-2-yl)-6,7,8,9-tetrahydro-5H-pyrimido[4,5-d]azepine-2,4-diamine trifluoroacetic acid salt]  3200 nM
